In a compilation of properties of binary mixtures (doi:10.1016/j.jct.2020.106093):

Test: xn = mol fraction of the nth substance listed
Conditions: 100.9 kPa, x2 = 0

O + CC(=O)[O-].CC[NH2+]CC
Conditions | speed of sound [m/s] | viscosity [mPa·s]
283.15 K | – | 1.306
288.15 K | – | 1.138
290.65 K | – | 1.066
293.15 K | – | 1.002
295.65 K | – | 0.943
298.15 K | – | 0.89
303.15 K | – | 0.797
305.65 K | – | 0.757
308.15 K | – | 0.719
310.65 K | – | 0.685
313.15 K | 1529.2 | 0.653
315.65 K | – | 0.624
318.15 K | 1536.8 | 0.596
323.15 K | – | 0.547
325.65 K | – | 0.525
328.15 K | – | 0.504
330.65 K | – | 0.485
333.15 K | – | 0.466
338.15 K | – | 0.433
340.65 K | – | 0.418
